# Assay results from patent publication US20040109845A1, “Method for inhibiting articular cartilage matrix calcification” (priority 2001, published 2004).
# Entries after “also recorded” stand apart in the source; their conditions may differ.
# Experiments:
# [1] = system: TGase activity (tTGase and Factor XIIIa) in meniscal cells; assay: TGase activity in cultured knee meniscal cells (BP incorporation into N,N-dimethylcasein); assay type: cell-based, human; conditions: meniscal cells, 72 hrs, IL-1 or TNFα 10 ng/ml; NMMA 10 μM or A20 transfection
# Method: Meniscal cells were maintained in DMEM high glucose and supplemented with 10% FCS, 1% L-glutamine, 100 units/ml Penicillin and 50 μg/ml Streptomycin (Omega Scientific, Tarzana, Calif.) and cultured at 37° C. with 5% CO2. In monolayer cell culture studies involving stimulation by TGFE[…] or IL-1, the cells were placed in DMEM high glucose containing 1% FCS, 1% L-glutamine, 100 units/ml Penicillin and 50 μg/ml Streptomycin. In all other studies, the cells were cultured in complete medium (as described above). Only primary or first passage meniscal cells were studied.
# TGase activity was measured by modifications to a previously described method (35). Specifically, we coated 96 well ImmunoModule plates (Nunc, Rochester, N.Y.) with 200 μl of 20 mg/ml N,N-dimethylcasein for 1 hr at 23° C. The N,N-dimethylcasein was removed and nonspecific protein binding was blocked by adding 3% BSA in 100 mM Tris, pH 8.5, 150 mM NaCl, 0.05% Tween-20 (TBST) to each well for an additional 1 hr at 23° C. Then, aliquots of 5 μg of total cellular protein from meniscal or TC28 cells that had been lysed and sonicated (in 5 mM Tris HCl, 0.25 M sucrose, 0.2 mM MgSO4, 2 mM DTT, 0.4 mM PMSF, 0.4% Triton X100, pH 7.5), were added to the plate in triplicate. To measure TGase in extracts of whole menisci, 50 mg dry weight of tissue from the central zone of each medial meniscus was used as the source (after solubilization and sonication) for aliquots of 5 μg of soluble protein. Fifty μl of solution A (100 mM Tris, pH 8.5 and 20 mM CaCl2) was added to all samples for TGase assay, followed by the addition of 50 μl of solution B (100 mM Tris, pH 8.5, 40 mM DTT and freshly added 2 mM 5-(Biotinamido) pentylamine (BP)). The plates were incubated for 1 hr at 37° C. The wells were washed once with TBST containing 1 mM EDTA and then three times with TBST. One hundred μl of a 1:500 dilution of streptavidin-AP in 3% BSA/TBST was added to each well for 1 hr at 23° C. The wells were washed twice with TBST, and 200 μl of solution C (100 mM Tris, pH 9.8, mM NaCl, 5 mM MgCl2, 1 mg/ml of freshly added p-nitrophenylphosphate) was added to each well. Readings at OD410 were taken over 15 minutes. Purified guinea pig liver TGase (Sigma) was used to prepare a standard curve. TGase activity was designated as the amount of BP incorporated into casein (per μg cellular DNA, determined chromogenically following precipitation in perchlorate (28), or, where indicated, per μg protein, determined as previously described (28)).
# To directly induce expression of each TGase in meniscal cells, 5×10^5 primary cells were plated in 60 mm dishes and allowed to adhere overnight. We modified (28) the manufacturer's protocol for the Lipofectamine Plus kit (Life Technologies, Grand Island, N.Y.). To optimize the transfection of meniscal cells, we added 2.0 ml of serum-free DMEM/F12 containing 0.00015% digitonin to washed cells and incubated for 3 min at 23° C. Then, media was removed, and cells transfected at 37° C. for 7 hrs, followed by removal of the media and addition of complete DMEM high glucose medium. Transfection of each TGase into TC28 cells was done by the same procedure, with the exception that the digitonin permeabilization step was omitted.
# [2] = system: NO release by meniscal cells; assay: NO release by cultured meniscal cells (Greiss reaction); assay type: cell-based, human; conditions: 72 hrs, IL-1 or TNFα 10 ng/ml, NMMA 10 μM or A20 transfection
# Method: NO release by 3×10^5 meniscal cells, which were plated and stimulated with TNFα (10 ng/ml) or IL-1 (10 ng/ml), with or without 10 μM NMMA (FIG. 8A), for 72 hrs was studied. Conditioned media were collected and 50 μl aliquots analyzed for NO release using the Greiss Reaction, with results expressed as μmoles released per μg DNA. […] After 72 hrs of incubation with TNFα or IL-1, the conditioned media were collected from the cultured, transfected cells and analyzed in triplicate for NO release, as above. Data pooled from 4 normal donors studied in triplicate for FIGS. 8A and 8B. *p<0.05.
# PPi was determined by differential adsorption on activated charcoal of UDP-D-[6-^3H] glucose (Amersham, Chicago, Ill.) from the reaction product 6-phospho [6-^3H] gluconate (28). Units of NTPPPH and AP were designated as micromoles of substrate hydrolyzed per hour (per μg DNA in each sample) (28). NO release by cultured meniscal cells was measured using the Greiss reaction (33). Concentrations or specific activities of PPi, NTPPPH, and AP were equalized for cellular DNA concentrations in each well.
structure (smiles),measurement,setting,value
"CNC(=N)NCCC[C@H](N)C(=O)O [NMMA, reference compound]",Effect on IL-1 and TNFα-induced TGase activity,[1],blocked the ability of both IL-1 and TNFα to induce TGase activity; also recorded: attenuated LL-1 and TNFα-induced TGase activity
same,Effect on IL-1 and TNFα-induced NO release,[2],attenuated IL-1 and TNFα-induced NO release; also recorded: suppresses IL-1 and TNFα-induced NO release
